In US20250145627A1, “METTL3 Inhibitor and Composition, and Application of Same in Medicine” (XIZANG HAISCO PHARMACEUTICAL CO., LTD., priority 2022, published 2025):
pIC50: −log10 of the molar value. Like-named read-outs stand apart in the source and are kept apart here.

Assays:
MOLM-13 cells = experiment: Cell proliferation test on MOLM-13 cells (Cellriter-Glo); assay type: cell-based; conditions: Homo sapiens
Method: Cell plating: Cells were plated when they grow to a logarithmic growth phase. The cells were collected and the cell density was adjusted to 6×10^4 cells/mL; then the cell suspension is then poured into a loading slot and added into a 96-well cell culture plate at 50 μL/well (3000 cells/well viable cells). Note: the cells in the loading slot were well mixed while plating; cell information and plating date were labeled on the 96-well plates. NC wells (control wells) and BG wells (background wells) were provided. […] 50 μL/well of the compounds were added to the 96-well plate in which the cells were already plated. Incubation was carried out at 37° C., 5% CO2 for a period of time. Cell proliferation test: After incubation in the incubator for a period of time, 50 μL of […]-Glo Reagent per well was added. The plate was shaken at room temperature (500 rpm), incubated for 10 min in the dark, and then the […] was measured with a microplate reader. The mean background value was calculated. [formula] […] Specific data were presented in the form of graphs.

[1] = target: T1, hERG potassium ion channel (Homo sapiens, UniProt Q12809); experiment: Test for hERG potassium ion channel (manual patch-clamp, CHO cells); assay type: cell-based; conditions: CHO cells stably expressing hERG, whole cell patch-clamp, room temperature; read-out: IC50 for the inhibitory effect on hERG potassium channel current
T1 construct: expressed in transfected cells
Excerpt: Experimental platform: electrophysiological manual patch-clamp system Cell line: Chinese hamster ovary (CHO) cell lines stably expressing hERG potassium ion channel
Experimental method: in CHO (Chinese Hamster Ovary) cells stably expressing hERG potassium channel, whole cell patch-clamp technique was used to record hERG potassium channel current at room temperature. The glass microelectrode was made of a glass electrode blank (BF150-86-10, Sutter) by a puller. The tip resistance after filling the liquid in the electrode was about 2-5 MO. The glass microelectrode can be connected to the patch-clamp amplifier by inserting the glass microelectrode into an amplifier probe. The clamping voltage and data recording were controlled and recorded by the pClamp 10 software through a computer. The sampling frequency was 10 kHz, and the filtering frequency was 2 kHz. […]
Data processing: Data analysis processing was carried out by using pClamp 10, GraphPad Prism 5 and Excel software. The inhibition degree of hERG potassium current (peak value of hERG tail current induced at −50 mV) at different compound concentrations was calculated by the following formula: […]
Compound IC50 was calculated using GraphPad Prism 5 software by fitting according to the following equation: […]

[2] = Pharmacokinetic test in mice; assay type: in vivo; conditions: male C57 mice, plasma
Method: • 2.1 Experimental animals: male C57 mice, 18-20 g, 6 mice/compound or 12 mice/compound. • 2.2 Experimental design: the C57 mice were randomly grouped according to their body weights. The animals were fasted with water available for 12 to 14 h one day before the administration, and were fed 4 h after the administration.
Vehicle for intravenous administration: 5% DMA+5% Solutol+90% Saline; vehicle for intragastric administration: 0.5% MC; • (DMA: dimethylacetamide; Solutol: polyethylene glycol-15-hydroxystearate; Saline: physiological saline; MC: Methyl cellulose solution)
Before and after the administration, 0.06 mL of blood was taken from the orbit of the animals under isoflurane anesthesia and placed in an EDTAK2 centrifuge tube. The blood was centrifuged at 5000 rpm and 4° C. for 10 min to collect the plasma. The blood collection time points for the intravenous administration group and intragastric administration group were 0 min, 5 min, 15 min, 30 min, 1 h, 2 h, 4 h, 7 h and 24 h. Before analysis and detection, all samples were stored at −80° C.

[3] = MOLM-13 cells, maximum detection concentration 10 μM, read-out: IC50 of compounds on MOLM-13 cells
[4] = MOLM-13, read-out: IC50 on MOLM-13 cells

T1 sequence (Q12809 whole entry): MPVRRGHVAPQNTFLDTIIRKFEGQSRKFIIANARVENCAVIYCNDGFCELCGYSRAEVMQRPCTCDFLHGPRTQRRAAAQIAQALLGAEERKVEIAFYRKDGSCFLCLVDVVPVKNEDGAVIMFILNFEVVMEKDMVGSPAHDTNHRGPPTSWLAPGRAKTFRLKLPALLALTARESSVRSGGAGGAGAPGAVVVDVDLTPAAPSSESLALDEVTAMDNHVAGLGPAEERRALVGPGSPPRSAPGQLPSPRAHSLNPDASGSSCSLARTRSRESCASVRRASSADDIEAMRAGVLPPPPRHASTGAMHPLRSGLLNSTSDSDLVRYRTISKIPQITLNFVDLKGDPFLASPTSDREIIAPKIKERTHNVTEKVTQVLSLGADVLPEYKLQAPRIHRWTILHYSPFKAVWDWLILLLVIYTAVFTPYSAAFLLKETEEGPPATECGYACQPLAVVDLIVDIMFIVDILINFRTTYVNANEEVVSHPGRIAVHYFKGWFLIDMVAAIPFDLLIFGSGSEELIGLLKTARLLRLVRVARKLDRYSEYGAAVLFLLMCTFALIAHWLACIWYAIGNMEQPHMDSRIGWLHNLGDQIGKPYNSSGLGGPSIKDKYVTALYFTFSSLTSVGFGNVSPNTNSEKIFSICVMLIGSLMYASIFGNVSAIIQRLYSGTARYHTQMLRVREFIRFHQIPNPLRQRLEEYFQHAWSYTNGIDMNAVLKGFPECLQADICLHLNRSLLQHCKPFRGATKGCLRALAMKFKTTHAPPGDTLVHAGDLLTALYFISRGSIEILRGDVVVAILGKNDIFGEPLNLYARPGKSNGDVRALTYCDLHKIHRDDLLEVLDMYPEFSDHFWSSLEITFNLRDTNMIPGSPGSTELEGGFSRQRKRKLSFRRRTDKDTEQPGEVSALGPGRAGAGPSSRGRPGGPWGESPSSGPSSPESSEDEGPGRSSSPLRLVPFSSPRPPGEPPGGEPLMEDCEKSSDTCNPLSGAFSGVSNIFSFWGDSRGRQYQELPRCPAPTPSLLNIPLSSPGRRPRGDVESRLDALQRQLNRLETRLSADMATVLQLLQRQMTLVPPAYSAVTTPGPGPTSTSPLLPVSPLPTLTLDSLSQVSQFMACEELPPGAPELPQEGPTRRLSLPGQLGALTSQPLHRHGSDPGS

SMILES	pIC50 (MOLM-13 cells; [3])	also measured
O=C(NCc1cc2[nH]c(CNC3CCCCC3)cc2s1)c1cc(=O)n2ccccc2n1 [Compound 20]	5.00 to 5.70	
CC(C)(C)CNCc1cc2sc(CNC(=O)c3cc(=O)n4ccccc4n3)cc2[nH]1 [Compound 22]	5.00 to 5.70	
CCn1ccn2c(=O)cc(C(=O)NCc3ccc4cc(CNCC56CC(F)(C5)C6)[nH]c4c3)nc12 [Trifluoroacetate of compound 8]		pIC50 (MOLM-13 cells; MOLM-13, read-out: IC50 of compounds on MOLM-13 cells): > 5.70
Cn1ccn2c(=O)cc(C(=O)NCc3ccc4cc(CNCC56CC(F)(C5)C6)[nH]c4c3)nc12 [Compound 3]	> 5.70	pIC50 (MOLM-13 cells; [4]): 6.64
O=C(NCc1cc2[nH]c(CNCC3CCC3)cc2s1)c1cc(=O)n2cccc(F)c2n1 [Compound 18]	5.00 to 5.70	
Cn1ccn2c(=O)cc(C(=O)NCc3ccc4cc(CNCC5CCC5)[nH]c4c3)nc12 [Trifluoroacetate of compound 1]	> 5.70	
[2H]C([2H])([2H])n1ccn2c(=O)cc(C(=O)NCc3ccc4cc(CNCC56CC(F)(C5)C6)[nH]c4c3)nc12 [Compound 4]	> 5.70	pIC50 (MOLM-13 cells; [4]): 6.80
O=C(NCc1ccc2cc(CNCC34CC(F)(C3)C4)[nH]c2c1)c1cc(=O)n2ccccc2n1 [Compound 23 in WO 2021111124]		F ([2]; i.g. 10 mg/kg): 31.6%; AUC(0-t) ([2]; mouse, iv, i.v. 2.5 mg/kg): 730 ng·h/mL; clearance ([2]; mouse, iv, i.v. 2.5 mg/kg): 57 mL/min/kg; Vd ([2]; mouse, iv, i.v. 2.5 mg/kg, read-out: Vdss): 2.21 L/kg; AUC(0-t) ([2]; mouse, po, i.g. 10 mg/kg): 923 ng·h/mL

More lines, main results first:

pIC50 (MOLM-13 cells; [3])	SMILES	also measured
> 5.70	C#CCn1ccn2c(=O)cc(C(=O)NCc3ccc4cc(CNCC5CCC5)[nH]c4c3)nc12 [Trifluoroacetate of compound 10]	
5.00 to 5.70	CCn1ccn2c(=O)cc(C(=O)NCc3ccc4cc(CNCC5CCC5)[nH]c4c3)nc12 [Trifluoroacetate of compound 9]	
5.00 to 5.70	CC(C)n1ccn2c(=O)cc(C(=O)NCc3ccc4cc(CNCC5CCC5)[nH]c4c3)nc12 [Trifluoroacetate of compound 6]	
5.00 to 5.70	O=C(NCc1cc2[nH]c(CNCC34CC(F)(C3)C4)cc2s1)c1cc(=O)n2ccn(C(F)F)c2n1 [Trifluoroacetate of compound 14]	
5.00 to 5.70	O=C(NCc1ccc2cc(CNCC3CCC3)[nH]c2c1)c1cc(=O)n2ccn(CC3CC3)c2n1 [Trifluoroacetate of compound 5]	
5.00 to 5.70	O=C(NCc1cc2[nH]c(CNCC3CCC3)cc2s1)c1cc(=O)n2ccc(C3CC3)cc2n1 [Trifluoroacetate of compound 17]	
5.00 to 5.70	O=C(NCc1ccc2cc(CNCC3CCC3)[nH]c2c1)c1cc(=O)n2ccn(C3CC3)c2n1 [Trifluoroacetate of compound 11]	
> 5.70	O=C(NCc1cc2[nH]c(CNCC3CCC3)cc2s1)c1cc(=O)n2ccccc2n1 [Trifluoroacetate of compound 12]	pIC50 [1]: < 4.52
5.00 to 5.70	O=C(NCc1cc2[nH]c(CNCC3CCC3)cc2s1)c1cc(=O)n2cc(F)ccc2n1 [Trifluoroacetate of compound 16]	
5.00 to 5.70	O=C(NCc1ccc2cc(CNCC3CCC3)[nH]c2c1)c1cc(=O)n2cc[nH]c2n1 [Trifluoroacetate of compound 2]	
